What was measured:
[1] = system: visual cortex of adult MeCP2+/− mice; test: Ocular dominance plasticity after monocular deprivation, optical imaging of intrinsic signals; format: in vivo, mouse; conditions: 180 μg/kg/day i.p. starting at 2 weeks; P60 MeCP2 KO mice
synaptic transmission = test: Synaptic transmission during direct application of the molecules; format: cell-based, mouse; conditions: direct application of the molecule
Source text: rhIGF1 produced a similar improvement as (1-3)IGF-1 in all maturational signatures measured, including (A) synaptic transmission levels, and (B) circuit stability (by preventing ocular dominance plasticity) in P60 MeCP2 KO mice.
The above data focused on the (1-3)IGF-1 fragment of IGF1 to promote IGF1 signaling. We also have tested the effect of the full-length IGF1 peptide already approved for pediatric administration in human patients (for short stature indications). We have verified a correspondence in the effects of (1-3)IGF-1 and recombinant human IGF1 (rhIGF1).

[2] = in vivo; cited from earlier work
rat hippocampal cultures = conditions: Ramsey et al., 2005; Xing et al., 2007; cited from earlier work

Molecule	maturation of cortical circuitry during ocular dominance plasticity (FIG. 9B) [1]	synaptic activity / synaptic transmission levels (FIG. 9A) (synaptic transmission)	crossing the blood-brain barrier [2]	excitatory postsynaptic currents (rat hippocampal cultures)
rhIGF1: full-length IGF1 peptide already approved for pediatric administration in human patients; recombinant human IGF1	promoted to similar degrees	striking enhancements of synaptic activity	capable of crossing the blood-brain barrier	elevate excitatory postsynaptic currents significantly
BDNF: brain derived neurotrophic factor (protein, UniProt P23560 19-247, looked up) Neurotrophic factor BDNF …: APMKEANIRGQGGLAYPGVRTHGTLESVNGPKAGSRGLTSLADTFEHVIEELLDEDQKVRPNEENNKDADLYTSRVMLSSQVPLEPPLLFLLEEYKNYLDAANMSMRVRRHSDPARRGELSVCDSISEWVTAADKKTAVDMSGGTVTVLEKVPVSKGQLKQYFYETKCNPMGYTKEGCRGIDKRHWNSQCRTTQSYVRALTMDSKKRIGWRFIRIDTSCVCTLTIKRGR	–	–	poor efficiency at crossing the blood brain barrier	–

— patent US7994127B2, “Treatment of rett syndrome” (Massachusetts Institute of Technology, priority 2007, dated 2011)
